The record followed here is patent US20100036088A1, “Selective poly-N-substituted glycine antibiotics” (priority 2008, published 2010).

Structures are written as SMILES. Like-named read-outs stand apart in the source and are kept apart here. Square brackets hold non-standard residues; d marks the D form. Peptide text beside a SMILES is read from it. Nrpe = C[C@@H](NCC(=O)O)c1ccccc1; Nspe = C[C@H](NCC(=O)O)c1ccccc1; Nphe = O=C(O)CNCc1ccccc1; Nlys = NCCCCNCC(=O)O Bounds are passed on as bounds.

Series [1] concerns B. subtilis (ATCC 6633). In kind it is cell-based. As to conditions: ATCC 6633. The procedure:
(§1) Whereas the preceding generation of molecules was designed to elucidate structure function relationships of specific molecular parameters (chirality, length, hydrophobicity, etc.), another generation compounds were designed explicitly to explore effects on selectivity. Antimicrobial activity of these compounds was tested against bacterial strains E. coli (ATTC 35218) and B. subtilis (ATTC 6633) in cation-adjusted MHB using the microdilution protocols previously described. The sequences, antimicrobial activities, hemolytic activities, and metabolic inhibitory concentrations against NIH 3T3 mouse fibroblast cells are summarized in Table 3 and the rationale of their design is described below.
(§2) The potencies of all compounds were determined against representative Gram-negative (E. coli ATCC 35218) and Gram-positive (B. subtilis ATCC 6633) biosafety level 1 (BSL1) organisms. In addition to hemolytic activity, the conventional measure of toxicity to mammalian cells, the effect of each ampetoid on NIH 3T3 mouse fibroblast cells was determined using the MTS tetrazolium salt-based calorimetric assay. While hemolysis measures the degree to which erythrocytes are lysed, the MTS assay indirectly quantifies the extent to which cellular metabolic activity is inhibited.
(§3) Screening antibacterial assays. MICs were determined in 96-well microtiter plates in accordance with CLSI M7-A6 protocols. Peptoid solutions with 50 μL total volume were prepared using 2:1 serial dilutions. 50 μL of bacteria inoculum (1×10^6 CFU/mL) prepared in cation-adjusted Mueller-Hinton broth (CAMHB) was added to test wells. Control wells contained 100 μL MHB (no growth) or 50 μL inoculums with 50 μL MHB with no peptoid. […] Reported values were reproducible over three experiments, each containing two parallel trials.

Series [2] relates to E. coli (ATCC 35218). In kind it is cell-based. As to conditions: ATCC 35218. The procedure:
as §1, §2, §3

The test system of series [3] is human erythrocytes. As to the kind of experiment: Hemolysis assay. In kind it is cell-based. The procedure: Hemolysis assays. Erythrocytes were isolated from freshly drawn, heparanized human blood and resuspended to 20 vol % in PBS (pH 7.4). In a 96-well microtiter plate, 100 μL erythrocyte suspension was added to 100 μL peptoid solution in PBS (prepared by 1:2 serial dilutions), or 100 μL PBS in the case of negative controls. 100% hemolysis wells contained 100 μL blood cell suspension with 100 μL 0.2 vol % Triton X-100. The plate was incubated for 1 h at 37° C., then each well was diluted with 150 μL PBS. The plate was then centrifuged at 1200 g for 15 min, 100 μL of the supernatant from each well transferred to a fresh microtiter plate, and A350 measured.
Hemolysis assays. Erythrocytes were isolated from freshly drawn, heparanized human blood and resuspended in PBS (pH 7.4) to make a 20% volume suspension. Peptoid solutions were prepared by serial dilution (2:1) in a 96-well microtiter plate. For test wells, 100 μL of erythrocyte suspension was added to 100 μL of peptoid solution in PBS; PBS without peptoid was used as the negative control and 0.2 vol % Triton X-100 as the positive control that indicates 100% hemolysis. After 1 hour incubation at 37° C., each well was diluted with 150 μL PBS. Plates were then centrifuged at 1,200×g for 15 minutes to pellet the cells. 30 μL of the supernatant from each well were transferred to the corresponding well of a second 96-well plate that contains 70 μL PBS.

A short description of series [4]: MTS assay, metabolic inhibition. Type of series: cell-based, mouse. The procedure: as §2
MTS assays. NIH/3T3 cells (ATCC Corporation) cultured at 37° C. and 5% CO2 in complete Dulbecco's modified eagle's media (CDMEM) supplemented with 1% sodium pyruvate, 1% penicillin-streptomycin, 1.5 g/L NaHCO3, and 10% fetal bovine serum. Cells were seeded at a density of 5,000 cells per well for NIH/3T3 cells in 96-well plates (100 μl total volume). A peptoid solution plate (100 μL total volume per well) was prepared by serial dilution of aqueous peptoid stock solution in Hank's balanced salt solution (HBSS) media. The day-old cell monolayers were washed with HBSS and media was replaced with 100 μL HBSS. The contents of the peptoid solution plate were transferred onto corresponding wells of the cell monolayer plate, and 40 μL MTS reagent (Promega, Inc.) was added to each well. After incubating for 3 hours at 37° C., absorbance at 490 nm was determined. […] The average of six replicates is reported.
On the technique in general: Tetrazolium dyes change colour on reduction, which living cells bring about.

On to `C[C@@H](c1ccccc1)N(CC(N)=O)C(=O)CN(C(=O)CN(CCCCN)C(=O)CN(Cc1ccccc1)C(=O)CN(Cc1ccccc1)C(=O)CN(CCCCN)C(=O)CN(C(=O)CN(C(=O)CN(CCCCN)C(=O)CN(Cc1ccccc1)C(=O)CN(Cc1ccccc1)C(=O)CNCCCCN)[C@@H](C)c1ccccc1)[C@@H](C)c1ccccc1)[C@@H](C)c1ccccc1` [1-Npm2,3,8,9, H-(Nlys-Npm-Npm-Nlys-Nspe-Nspe)2-NH2], for which, in series [1], the “B. subtilis MIC” value amounted to 1.6 µM. In addition, the “E. coli MIC” value in series [2] came out at 6.3 µM. In series [3], this compound registered an HD50 greater than 200 µM. The compound further displayed an IC50 in series [4] of 15 µM.
With `C[C@@H](c1ccccc1)N(CC(=O)N(CC(=O)N(CCCCN)CC(=O)N(CC(=O)N(CC(=O)N(CCCCN)CC(=O)N(CC(=O)N(CC(=O)N(CCCCN)CC(=O)N(CC(=O)N(CC(N)=O)Cc1ccccc1)Cc1ccccc1)Cc1ccccc1)Cc1ccccc1)Cc1ccccc1)Cc1ccccc1)Cc1ccccc1)C(=O)CNCCCCN` [1ach-Nspe2, H-(Nlys-Nspe-Npm)-(Nlys-Npm-Npm)3-NH2] (H-[Nlys][Nspe][Nphe][Nlys][Nphe][Nphe][Nlys][Nphe][Nphe][Nlys][Nphe][Nphe]-NH2), the “B. subtilis MIC” value in series [1] was 0.78 µM. Besides, in series [2], the “E. coli MIC” value was 6.3 µM. In addition, in series [3], the HD10 amounted to 160 µM and the HD50 is greater than 200 µM. This compound also gave an IC50 in series [4] of 11 µM.
On the same counts, the results for `C[C@@H](c1ccccc1)N(CC(N)=O)C(=O)CN(CCCCN)C(=O)CN(CCCCN)C(=O)CN(C(=O)CN(C(=O)CN(CCCCN)C(=O)CN(C(=O)CN(CCCCN)C(=O)CN(CCCCN)C(=O)CN(C(=O)CN(C(=O)CNCCCCN)[C@@H](C)c1ccccc1)[C@@H](C)c1ccccc1)[C@@H](C)c1ccccc1)[C@@H](C)c1ccccc1)[C@@H](C)c1ccccc1` [1-Nlys5,11, H-(Nlys-Nspe-Nspe-Nlys-Nlys-Nspe)2-NH2] (H-[Nlys][Nspe][Nspe][Nlys][Nlys][Nspe][Nlys][Nspe][Nspe][Nlys][Nlys][Nspe]-NH2) are 1.6 µM, 50 µM, >100/>100 μM, >100/>100 μM and 85 µM.
`C[C@@H](c1ccccc1)N(CC(=O)N(CCCCN)CC(=O)N(CC(=O)N(CC(=O)N(CCCCN)CC(=O)N(CC(=O)N(CC(=O)N(CCCCN)CC(N)=O)[C@@H](C)c1ccccc1)[C@@H](C)c1ccccc1)[C@@H](C)c1ccccc1)[C@@H](C)c1ccccc1)C(=O)CN(C(=O)CNCCCCN)[C@@H](C)c1ccccc1` [110mer, H-(Nlys-Nspe-Nspe)3-Nlys-NH2] (H-[Nlys][Nspe][Nspe][Nlys][Nspe][Nspe][Nlys][Nspe][Nspe][Nlys]-NH2): the “B. subtilis MIC” value in series [1] is 0.78 µM. For the same compound, in series [2], the “E. coli MIC” value worked out at 12.5 µM. Besides, the HD50 in series [3] is on record as >200/>200 μM. The compound further registered an IC50 in series [4] of 54 µM.
As for `C[C@H](NCC(=O)N(CCCCN)CC(=O)N(CC(=O)N(CCCCN)CC(=O)N(CCCCN)CC(=O)N(CC(=O)N(CC(=O)N(CCCCN)CC(=O)N(CC(=O)N(CCCCN)CC(=O)N(CCCCN)CC(=O)N(CC(N)=O)[C@@H](C)c1ccccc1)[C@@H](C)c1ccccc1)[C@@H](C)c1ccccc1)[C@@H](C)c1ccccc1)[C@@H](C)c1ccccc1)c1ccccc1` [1B-Nlys4,10, H-(Nspe-Nlys-Nspe-Nlys-Nlys-Nspe)2-NH2] (H-[Nspe][Nlys][Nspe][Nlys][Nlys][Nspe][Nspe][Nlys][Nspe][Nlys][Nlys][Nspe]-NH2), in series [1], the “B. subtilis MIC” value is 0.78 µM. For the same compound, the “E. coli MIC” value in series [2] came to 50 µM. Further, in series [3], the HD10 is reported as >200/>200 μM and the HD50 is >200/>200 μM. Moreover, the IC50 in series [4] turned out to be 83 µM.
Consider `C[C@@H](c1ccccc1)N(CC(N)=O)C(=O)CN(C(=O)CN(CCCCN)C(=O)CN(C(=O)CN(C(=O)CN(CCCCN)C(=O)CN(CCc1cnc[nH]1)C(=O)CN(C(=O)CN(CCCCN)C(=O)CN(C(=O)CN(C(=O)CNCCCCN)[C@@H](C)c1ccccc1)[C@@H](C)c1ccccc1)[C@@H](C)c1ccccc1)[C@@H](C)c1ccccc1)[C@@H](C)c1ccccc1)[C@@H](C)c1ccccc1` [1-Nhis6], for which, in series [1], the “B. subtilis MIC” value is 1.6 µM. In addition, in series [2], the “E. coli MIC” value stood at 25 µM. Further, in series [3], the HD10 amounted to 170 µM and the HD50 was greater than 200 µM.
In the case of `C[C@H](c1ccccc1)N(CC(=O)N(CC(N)=O)[C@@H](C)c1ccccc1)C(=O)CN(CCCCN)C(=O)CN(C(=O)CN(C(=O)CN(CCCCN)C(=O)CN(C(=O)CN(C(=O)CN(CCCCN)C(=O)CN(C(=O)CN(C(=O)CNCCCCN)[C@H](C)c1ccccc1)[C@@H](C)c1ccccc1)[C@H](C)c1ccccc1)[C@@H](C)c1ccccc1)[C@H](C)c1ccccc1)[C@@H](C)c1ccccc1` [1-Nrpe2,5,8,11, H-(Nlys-Nrpe-Nspe)4-NH2] (H-[Nlys][Nrpe][Nspe][Nlys][Nrpe][Nspe][Nlys][Nrpe][Nspe][Nlys][Nrpe][Nspe]-NH2), the “B. subtilis MIC” value in series [1] (Table 6) amounted to 1.6 µM. The “E. coli MIC” value in series [2] (Table 6) was found to be 6.3 µM. Besides, in series [3] (Table 6), the HD10 is 22 µM and the HD50 was found to be 95 µM. This compound also yielded an IC50 in series [4] (Table 6, NIH 3T3 mouse fibroblast cells) of 5.2 µM.
Regarding `C[C@@H](c1ccccc1)N(CC(N)=O)C(=O)CN(C(=O)CN(CCCCN)C(=O)[C@@H]1CCCN1C(=O)CN(C(=O)CN(CCCCN)C(=O)CN(C(=O)CN(C(=O)CN(CCCCN)C(=O)[C@@H]1CCCN1C(=O)CN(C(=O)CNCCCCN)[C@@H](C)c1ccccc1)[C@@H](C)c1ccccc1)[C@@H](C)c1ccccc1)[C@@H](C)c1ccccc1)[C@@H](C)c1ccccc1` [1-Pro3,9, H-(Nlys-Nspe-L-Pro-Nlys-Nspe-Nspe)2-NH2] (H-[Nlys][Nspe]P[Nlys][Nspe][Nspe][Nlys][Nspe]P[Nlys][Nspe][Nspe]-NH2), the “B. subtilis MIC” value in series [1] turned out to be 1.6 µM. Besides, the “E. coli MIC” value in series [2] was found to be 50 µM. In series [3], the HD10 is >200/>200 μM and the HD50 is given as >200/>200 μM. For the same compound, in series [4], the IC50 was determined as 71 µM.
In the case of `C[C@H](NCC(=O)N(CCCCN)CC(=O)N(CC(=O)N(CCCCN)CC(=O)N(CCCCN)CC(=O)N(CCCCN)CC(=O)N(CC(=O)N(CCCCN)CC(=O)N(CC(=O)N(CCCCN)CC(=O)N(CCCCN)CC(=O)N(CC(=O)N(CC(=O)N(CCCCN)CC(=O)N(CC(N)=O)[C@@H](C)c1ccccc1)[C@@H](C)c1ccccc1)[C@@H](C)c1ccccc1)[C@@H](C)c1ccccc1)[C@@H](C)c1ccccc1)[C@@H](C)c1ccccc1)c1ccccc1` [1B15mer-Nlys4,6,10, H-(Nspe-Nlys)2-Nlys2-(Nspe-Nlys)2-Nlys-Nspe2-Nlys-Nspe-NH2] (H-[Nspe][Nlys][Nspe][Nlys][Nlys][Nlys][Nspe][Nlys][Nspe][Nlys][Nlys][Nspe][Nspe][Nlys][Nspe]-NH2), the “B. subtilis MIC” value in series [1] was 0.78 µM. In series [2], the “E. coli MIC” value is greater than 100 µM. The compound further returned an IC50 in series [4] of 40 µM.
On to `C[C@H](NCC(=O)N(CCCCN)CC(=O)N(CC(=O)N(CCCCN)CC(=O)N(CCCCN)CC(=O)N(CCCCN)CC(=O)N(CC(=O)N(CCCCN)CC(=O)N(CC(=O)N(CCCCN)CC(=O)N(CCCCN)CC(=O)N(CC(N)=O)[C@@H](C)c1ccccc1)[C@@H](C)c1ccccc1)[C@@H](C)c1ccccc1)[C@@H](C)c1ccccc1)c1ccccc1` [1B-Nlys4,6,10, H-(Nspe-Nlys)2-Nlys2-(Nspe-Nlys)2-Nlys-Nspe)-NH2] (H-[Nspe][Nlys][Nspe][Nlys][Nlys][Nlys][Nspe][Nlys][Nspe][Nlys][Nlys][Nspe]-NH2), for which the “B. subtilis MIC” value in series [1] was found to be 1.6 µM. The “E. coli MIC” value in series [2] was greater than 100 µM. The same compound showed an IC50 in series [4] greater than 100 µM.

Broadly, the IC50 is the concentration needed to halve the response being measured. A higher IC50 goes with a need for much substance.
